Assay results: patent US5541343A, “Cyclic imino derivatives and pharmaceutical compositions containing them” (Karl Thomae GmbH, priority 1990, dated 1996)
pEC50, pIC50: −log10 of the molar value. Counter-ions that a name gives are not always drawn.

Assays:
platelet aggregation = test: Antithrombotic effect: collagen-induced platelet aggregation (Born and Cross method) in platelet-rich plasma; format: cell-based; conditions: Homo sapiens, 10 minutes preincubation at 37° C., 50% change in optical density, read-out: Inhibition of platelet aggregation EC50
Method: The thrombocyte aggregation is measured by the Born and Cross method (J. Physiol. 170: 397 (1964)) in platelet-rich plasma from healthy test subjects. To inhibit coagulation, 3.14% sodium citrate is added to the blood in a ratio by volume of 1:10.
Collagen-induced aggregation
The curve of the decrease in optical density of the platelet suspension is measured and recorded photometrically after the addition of the aggregation-inducing substance. The speed of aggregation is determined from the angle of inclination of the density curve. The point on the curve where maximum transmittance occurs is used to calculate the optical density.
The quantity of collagen is made as small as possible but sufficient to produce an irreversible reaction curve. Standard commercial collagen made by Hormonchemie of Munich is used. Before the addition of collagen, the plasma is incubated for 10 minutes with the substance at 37° C.
From the measurements obtained, an EC50 is determined graphically relating to a 50% change in the optical density in the sense of an inhibition of aggregation.

human thrombocytes = test: Fibrinogen binding to human thrombocytes; conditions: gel-filtered platelets, 125-J-fibrinogen, 20 minutes at ambient temperature; read-out: Fibrinogen binding test IC50
Method: 1. Fibrinogen binding to human thrombocytes
Blood obtained by puncture of an antecubital vein is anticoagulated with trisodium citrate (final concentration: 13 mM) and centrifuged for 10 minutes at 170 g. The supernatant platelet-rich plasma is placed on a Sepharose 2B column (Pharmacia) and eluted with a solution of 90 mM common salt, 14 mM trisodium citrate, 5 mM glucose and 50 mM tris(hydroxymethyl)aminomethane, adjusted to pH 7.4. The gel-filtered platelets (GFP) appearing in front of the plasma proteins are used for the binding tests.
50 μl of a 60 mM calcium chloride solution, 50 μl of a 0.6 mM adenosine diphosphate solution, 100 μl of substance solution or solvent and 50 μl of fibrinogen solution (containing 3 μg 125-J-fibrinogen) are added to 750 μl of GFP and incubated for 20 minutes at ambient temperature. The non-specific binding is measured in the presence of 3 mg/ml of cold fibrinogen.
900 μl of the incubate are carefully pipetted onto 250 μl of silicon oil (AP 38: AR 20, 1:2 v/v, Wacker Chemie) in Eppendorf vessels and centrifuged for 2 minutes at 10,000 g. The aqueous supernatant and some of the oil are removed, the tip of the vessel with the platelet pellet is cut off and the quantity of bound fibrinogen is measured in a gamma-counter. The concentration of substance which inhibits fibrinogen binding by 50% is calculated from a concentration series and given as the IC50.

[1] = system: collagen-induced thrombocyte aggregation; test: Collagen-induced thrombocyte aggregation ex vivo in rhesus monkeys following oral administration; conditions: 1 mg/kg
Method: Moreover, the compound of Example 70(1), for example, inhibits collagen-induced thrombocyte aggregation ex vivo in rhesus monkeys following oral administration of 1 mg/kg for more than 8 hours.

[2] = Approximate LD50 in rats (tolerability); conditions: rat, in vivo, after intravenous route
Method: The new compounds are well tolerated since the approximate LD50 in rats is, for example, for the compound of Example (3) above 100 mg/kg after intravenous route and for the compound of Example 70(1) above 2.000 mg/kg after oral administration.

SMILES | pEC50 (platelet aggregation) | pIC50 (human thrombocytes) | inhibits collagen-induced thrombocyte aggregation ex vivo (duration of inhibition) [1] | LD50 [2]
N=C(N)NCCCCCOc1ccc([C@@H]2C[C@@H](CC(=O)O)C(=O)N2CCCc2ccccc2)cc1 (relative stereo) [31(1), (3S,R;5S,R)-3-carboxymethyl-5-[4-[(5-guanidinopentyl)oxy]phenyl]-1-(3-phenylpropyl)-2-pyrrolidinone] | 4.18 | 5.33 |  | 
N=C(N)c1ccc(-c2ccc(N3CC(CP(=O)(O)O)CC3=O)cc2)cc1 (centres unmarked) [6(184), 1-(4'-amidino-4-biphenylyl)-4-phosphonomethyl-2-pyrrolidinone] | 6.00 | 6.38 |  | 
N=C(N)c1ccc(-c2ccc(OC[C@@H]3C[C@@H](CC(=O)O)C(=O)N3)cc2)cc1 [7(3), (3S,5S)-5-[(4'-amidino-4-biphenylyl)oxymethyl]-3-carboxymethyl-2-pyrrolidinone] | 7.22 | 7.51 |  | 
N=C(N)c1ccc2c(c1)C(=O)c1cc(OC[C@@H]3C[C@@H](CC(=O)O)C(=O)N3CCCc3ccccc3)ccc1-2 [7(36), (3S,5S)-5-[(7-amidino-9-keto-2-fluorenyl)oxymethyl]-3-carboxymethyl-1-(3-phenylpropyl)-2-pyrrolidinone] | 6.39 | 7.39 |  | 
N=C(N)c1ccc(Nc2ccccc2C(=O)NC[C@@H]2C[C@@H](CC(=O)O)C(=O)N2CCCc2ccccc2)cc1 [7(41), (3S,5S)-5-[[2-[(4-amidinophenyl)amino]phenyl]carbonylaminomethyl]-3-carboxymethyl-1-(3-phenylpropyl)-2-pyrrolidinone] | 4.72 | 5.55 |  | 
N=C(N)c1ccc(-c2ccc(S(=O)(=O)NC[C@@H]3C[C@@H](CC(=O)O)C(=O)N3CCCc3ccccc3)cc2)cc1 [7(70)] | 4.72 | 6.40 |  | 
N=C(N)c1ccc(-c2ccc(OC[C@@H]3C[C@@H](CC(=O)O)C(=O)N3)cc2)cc1F [7(93), (3S,5S)-5-[(4'-amidino-3'-fluoro-4-biphenylyl)oxymethyl]-3-carboxymethyl-2-pyrrolidinone] | 7.00 | 7.59 |  | 
NCCCCc1ccc(OC[C@@H]2C[C@@H](CC(=O)O)C(=O)N2CCCc2ccccc2)cc1 [23(8), (3S,5S)-5-[[4-(4-aminobutyl)phenyl]oxymethyl]-3-carboxymethyl-1-(3-phenylpropyl)-2-pyrrolidinonesemihydrate ×1.25 HCl] | 4.70 | 5.34 |  | 
NCCCC(=O)Nc1ccc(OC[C@@H]2C[C@@H](CC(=O)O)C(=O)N2CCCc2ccccc2)cc1 [32(1), (3S,5S)-5-[[4-[(3-aminopropyl)carbonylamino]phenyl]oxymethyl]-3-carboxymethyl-1-(3-phenylpropyl)-2-pyrrolidinone] | 4.48 | 5.66 |  | 
NC1CCc2cc(C(=O)NCC[C@@H]3C[C@@H](CC(=O)O)C(=O)N3CCCc3ccccc3)ccc2C1 (stereo partly drawn) [Example 32, (3S,5S)-5-[2-[(6-Amino-5,6,7,8-tetrahydro-2-naphthylcarbonyl)amino]ethyl]-3-carboxymethyl-1-(3-phenylpropyl)-2-pyrrolidinone-semihydrate] | 5.24 | 5.92 |  | 
COC(=O)C[C@@H]1C[C@@H](COc2ccc(-c3ccc(C(=N)NC(=O)OC)cc3)cc2)NC1=O [Example 70(1), (3S,5S)-5-[[4'-(N-methoxycarbonylamidino)-4biphenylyl]oxymethyl]-3-[(methoxycarbonyl)methyl]-2-pyrrolidinone] |  |  | more than 8 hours | 
N=C(N)c1ccc(-c2ccc(OC[C@@H]3C[C@@H](CC(=O)O)C(=O)N3)cc2)cc1 [Example (3), (3S,5S)-5-[(4'-amidino-4-biphenylyl)oxymethyl]-3-carboxymethyl-2-pyrrolidinone] |  |  |  | > 100 mg/kg

Continued, in another order:

pEC50 (platelet aggregation) | pIC50 (human thrombocytes) | SMILES | inhibits collagen-induced thrombocyte aggregation ex vivo (duration of inhibition) [1] | LD50 [2]
5.55 | 6.64 | N=C(N)c1ccc(-c2ccc(OC[C@H]3CNC(=O)[C@@H]3CC(=O)O)cc2)cc1 (relative stereo) [7(89), (3R,S;4R,S)-4-[(4'-amidino-4-biphenylyl)oxymethyl]-3-carboxymethyl-2-pyrrolidinone] |  | 
5.72 | 5.64 | COC(=O)C[C@@H]1C[C@@H](COc2ccc(-c3ccc(C(=N)N)cc3)cc2)NC1=O [6(2), (3S,5S)-5-[(4'-amidino-4-biphenylyl)oxymethyl]-3-[(methoxycarbonyl)methyl]-2-pyrrolidinone×1.25 HCl] |  | 
6.77 | 7.62 | N=C(N)c1ccc(-c2ccc(OC[C@@H]3C[C@@H](CC(=O)O)C(=O)N3c3ccccc3)cc2)cc1 [7(1), (3S,5S)-5-[(4'-amidino-4-biphenylyl)oxymethyl]-3-carboxymethyl-1-phenyl-2-pyrrolidinone-dihydrate] |  | 
5.59 | 7.30 | Cc1c(OC[C@@H]2C[C@@H](CC(=O)O)C(=O)N2CCCc2ccccc2)ccc(-c2ccc(C(=N)N)cc2)c1C [7(10), (3S,5S)-5-[(4'-amidino-2,3-dimethyl-4-biphenylyl)oxymethyl]-3-carboxymethyl-1-(3-phenylpropyl)-2-pyrrolidinone-hydrate] |  | 
5.70 | 6.77 | CC(=O)N(C[C@@H]1C[C@@H](CC(=O)O)C(=O)N1CCCc1ccccc1)c1ccc(-c2ccc(C(=N)N)cc2)cc1 [7(40), (3S,5S)-5-[[N-(4'-amidino-4-biphenylyl)-N-acetyl]aminomethyl]-3-carboxymethyl-1-(3-phenylpropyl)-2-pyrrolidinonehydrate] |  | 
4.92 | 6.16 | N=C(N)c1cccc(C(=O)c2ccc(OC[C@@H]3C[C@@H](CC(=O)O)C(=O)N3CCCc3ccccc3)cc2)c1 [7(46), (3S,5S)-5-[[4-[(3-amidinophenyl)carbonyl]phenyl]oxymethyl]-3-carboxymethyl-1-(3-phenylpropyl)-2-pyrrolidinone] |  | 
7.10 | 7.57 | CN(C)C(=O)CN1C(=O)[C@H](CC(=O)O)C[C@H]1COc1ccc(-c2ccc(C(=N)N)cc2)cc1 [7(51), (3S,5S)-5-[(4'-amidino-4-biphenylyl)oxymethyl]-3-carboxymethyl-1-[(dimethylaminocarbonyl)methyl]-2-pyrrolidinone hydrochloride-semihydrate] |  | 
7.22 | 7.70 | CC(=O)N1C[C@H](CC(=O)O)C[C@H]1COc1ccc(-c2ccc(C(=N)N)cc2)cc1 [7(56), (3S,5S)-1-acetyl-5-[(4'-amidino-4-biphenylyl)oxymethyl]-3-carboxymethyl-pyrrolidine-semihydrate] |  | 
6.68 | 7.70 | CN(C)S(=O)(=O)N1C[C@H](CC(=O)O)C[C@H]1COc1ccc(-c2ccc(C(=N)N)cc2)cc1 [7(58), (3S,5S)-5-[(4'-amidino-4-biphenylyl)oxymethyl]-3-carboxymethyl-1-(dimethylaminosulphonyl)-pyrrolidine×0.25 water] |  | 
6.05 | 7.49 | N=C(N)c1ccc(-c2ccc(OC[C@@H]3C[C@@H](CC(=O)O)C(=O)N3CCCc3ccccc3)cc2)cc1 [Example 7, (3S,5S)-5-[(4'-Amidino-4-biphenylyl)oxymethyl)-3-carboxymethyl-1-(3-phenylpropyl)-2-pyrrolidinone-hydrate] |  | 
4.96 | 5.34 | N=C(NO)c1ccc(-c2ccc(OC[C@@H]3C[C@@H](CC(=O)O)C(=O)N3)cc2)cc1 [Example 71, (3S,5S)-3-Carboxymethyl-5-[[4'-(N-hydroxyamidino)-4biphenylyl)oxymethyl]-2-pyrrolidinone] |  | 
